Columns and labels:
AXL = target: T1, AXL (Homo sapiens, UniProt P30530); test: Filter-binding radiometric kinase activity assay (KinaseProfiler, Eurofins); format: biochemical; settings: 1 µM compound; read-out: % Residual enzymatic activity at 1 µM AXL
T1 construct: purchased Eurofins Discovery (Kinase Profiler service)
T1 sequence (P30530 26-894): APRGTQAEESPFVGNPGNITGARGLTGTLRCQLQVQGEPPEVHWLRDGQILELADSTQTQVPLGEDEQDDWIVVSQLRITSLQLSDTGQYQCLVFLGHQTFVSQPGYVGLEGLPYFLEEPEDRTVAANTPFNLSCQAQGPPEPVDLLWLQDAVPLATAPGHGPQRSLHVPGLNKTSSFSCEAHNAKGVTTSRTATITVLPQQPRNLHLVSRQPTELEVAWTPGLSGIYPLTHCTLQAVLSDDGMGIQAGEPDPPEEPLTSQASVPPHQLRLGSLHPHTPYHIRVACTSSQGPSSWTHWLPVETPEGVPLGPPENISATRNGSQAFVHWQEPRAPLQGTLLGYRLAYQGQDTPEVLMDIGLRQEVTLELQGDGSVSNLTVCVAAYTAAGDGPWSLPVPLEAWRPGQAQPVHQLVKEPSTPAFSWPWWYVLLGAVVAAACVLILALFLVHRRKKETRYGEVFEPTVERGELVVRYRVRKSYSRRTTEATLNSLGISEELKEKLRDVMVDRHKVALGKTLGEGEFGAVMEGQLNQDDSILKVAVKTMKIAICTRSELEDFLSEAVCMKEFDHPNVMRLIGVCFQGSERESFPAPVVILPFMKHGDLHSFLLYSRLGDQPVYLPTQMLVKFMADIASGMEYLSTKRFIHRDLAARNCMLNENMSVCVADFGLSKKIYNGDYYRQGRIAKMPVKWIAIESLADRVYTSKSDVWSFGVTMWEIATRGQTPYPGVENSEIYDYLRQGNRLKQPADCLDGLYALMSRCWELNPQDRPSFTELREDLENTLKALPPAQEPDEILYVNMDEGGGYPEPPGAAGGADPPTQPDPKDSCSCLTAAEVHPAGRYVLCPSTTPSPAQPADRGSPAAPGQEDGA
Description: (§1) Filter-binding radiometric kinase activity assay (Kinase Profiler™) from Eurofins Discovery was used to determine the % of inhibition and/or IC50 values. […] The reaction is initiated by the addition of the Mg/ATP mixture. After incubation for 40 minutes at room temperature, the reaction is stopped by the addition of phosphoric acid to a concentration of 0.5%. 10 µL of the reaction is then spotted onto a P30 filter mat and washed four times for 4 minutes in 0.425% phosphoric acid and once in methanol prior to drying and scintillation counting. The IC50 values were derived by fitting a sigmoidal dose-response curve to a plot of assay readout over inhibitor concentration. All fits were computed with the GraphPad Prism Software (San Diego, CA, United States of America). Ki values were derived from IC5o values using Cheng Prusoff equation (Cheng Y et al., Biochem Pharmacol 22(23):3099-3108, 1973).

MET = target: T2, MET (Homo sapiens, UniProt P08581); test: as above; format: biochemical; settings: 1 µM compound; read-out: % Residual enzymatic activity at 1 µM MET
T2 construct: purchased Eurofins Discovery (Kinase Profiler service)
T2 sequence (P08581 25-1390): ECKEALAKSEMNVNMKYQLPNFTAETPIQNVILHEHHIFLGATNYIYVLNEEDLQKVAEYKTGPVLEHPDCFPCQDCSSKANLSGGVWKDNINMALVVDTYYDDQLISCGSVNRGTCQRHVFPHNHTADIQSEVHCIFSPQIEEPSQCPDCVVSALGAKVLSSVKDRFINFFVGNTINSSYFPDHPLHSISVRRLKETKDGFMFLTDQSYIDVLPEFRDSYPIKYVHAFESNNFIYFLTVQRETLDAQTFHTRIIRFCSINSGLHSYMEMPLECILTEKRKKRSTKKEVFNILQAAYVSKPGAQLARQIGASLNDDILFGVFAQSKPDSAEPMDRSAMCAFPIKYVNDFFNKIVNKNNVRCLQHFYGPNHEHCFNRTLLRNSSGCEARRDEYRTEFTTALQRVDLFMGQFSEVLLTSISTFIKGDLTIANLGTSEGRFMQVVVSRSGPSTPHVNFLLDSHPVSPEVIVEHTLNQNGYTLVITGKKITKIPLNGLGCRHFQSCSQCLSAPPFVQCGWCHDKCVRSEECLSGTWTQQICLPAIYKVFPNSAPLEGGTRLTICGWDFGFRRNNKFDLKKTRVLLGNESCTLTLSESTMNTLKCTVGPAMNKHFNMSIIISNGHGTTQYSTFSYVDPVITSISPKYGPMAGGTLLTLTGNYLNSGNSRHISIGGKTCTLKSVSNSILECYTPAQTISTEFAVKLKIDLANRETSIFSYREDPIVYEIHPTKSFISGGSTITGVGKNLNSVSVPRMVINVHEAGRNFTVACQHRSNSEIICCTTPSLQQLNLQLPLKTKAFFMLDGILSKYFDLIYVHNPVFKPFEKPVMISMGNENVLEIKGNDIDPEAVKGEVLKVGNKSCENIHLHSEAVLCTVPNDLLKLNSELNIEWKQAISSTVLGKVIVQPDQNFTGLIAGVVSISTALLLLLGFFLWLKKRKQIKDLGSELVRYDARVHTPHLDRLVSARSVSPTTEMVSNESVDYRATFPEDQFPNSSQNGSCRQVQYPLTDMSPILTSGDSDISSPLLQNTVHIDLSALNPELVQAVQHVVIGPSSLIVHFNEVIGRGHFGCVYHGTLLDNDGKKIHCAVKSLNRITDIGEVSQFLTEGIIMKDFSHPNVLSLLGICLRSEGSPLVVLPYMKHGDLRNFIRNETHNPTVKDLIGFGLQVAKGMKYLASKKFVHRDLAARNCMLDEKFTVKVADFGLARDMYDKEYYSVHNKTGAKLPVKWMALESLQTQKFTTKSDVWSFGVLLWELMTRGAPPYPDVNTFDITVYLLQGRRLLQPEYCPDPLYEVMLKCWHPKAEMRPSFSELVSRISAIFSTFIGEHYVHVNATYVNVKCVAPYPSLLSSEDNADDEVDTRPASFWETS
Description: as §1

Mer = target: T3, Mer (Homo sapiens, UniProt Q12866); test: as above; format: biochemical; settings: 1 µM compound; read-out: % Residual enzymatic activity at 1 µM Mer
T3 construct: purchased Eurofins Discovery (Kinase Profiler service)
T3 sequence (Q12866 21-999): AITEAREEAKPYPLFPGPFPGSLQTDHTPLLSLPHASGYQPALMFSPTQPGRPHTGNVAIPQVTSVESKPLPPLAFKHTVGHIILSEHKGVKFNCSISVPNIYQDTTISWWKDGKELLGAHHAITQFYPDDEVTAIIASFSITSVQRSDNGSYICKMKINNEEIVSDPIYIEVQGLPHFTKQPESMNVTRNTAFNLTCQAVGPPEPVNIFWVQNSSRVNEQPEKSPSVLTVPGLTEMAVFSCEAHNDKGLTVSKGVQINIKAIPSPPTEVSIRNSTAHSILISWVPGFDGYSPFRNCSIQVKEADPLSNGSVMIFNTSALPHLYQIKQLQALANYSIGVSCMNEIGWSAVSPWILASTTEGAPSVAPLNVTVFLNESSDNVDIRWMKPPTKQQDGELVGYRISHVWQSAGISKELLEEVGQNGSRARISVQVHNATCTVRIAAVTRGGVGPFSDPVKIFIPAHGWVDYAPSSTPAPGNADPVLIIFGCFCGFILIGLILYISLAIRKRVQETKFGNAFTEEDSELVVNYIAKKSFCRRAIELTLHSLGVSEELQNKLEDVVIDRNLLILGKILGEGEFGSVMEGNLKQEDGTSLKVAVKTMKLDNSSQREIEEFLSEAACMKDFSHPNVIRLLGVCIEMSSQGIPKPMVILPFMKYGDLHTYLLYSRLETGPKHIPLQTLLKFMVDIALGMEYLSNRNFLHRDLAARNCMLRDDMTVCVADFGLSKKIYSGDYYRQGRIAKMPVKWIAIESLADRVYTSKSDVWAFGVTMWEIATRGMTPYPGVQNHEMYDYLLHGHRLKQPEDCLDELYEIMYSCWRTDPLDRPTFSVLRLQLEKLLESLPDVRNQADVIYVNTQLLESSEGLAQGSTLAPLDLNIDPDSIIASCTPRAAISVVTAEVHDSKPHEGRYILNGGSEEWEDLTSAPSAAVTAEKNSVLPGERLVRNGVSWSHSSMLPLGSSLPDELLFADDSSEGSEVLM
Description: as §1

TYRO3 = target: T4, TYRO3 (Homo sapiens, UniProt Q06418); test: as above; format: biochemical; settings: 1 µM compound; read-out: % Residual enzymatic activity at 1 µM TYRO3
T4 construct: purchased Eurofins Discovery (Kinase Profiler service)
T4 sequence (Q06418 41-890): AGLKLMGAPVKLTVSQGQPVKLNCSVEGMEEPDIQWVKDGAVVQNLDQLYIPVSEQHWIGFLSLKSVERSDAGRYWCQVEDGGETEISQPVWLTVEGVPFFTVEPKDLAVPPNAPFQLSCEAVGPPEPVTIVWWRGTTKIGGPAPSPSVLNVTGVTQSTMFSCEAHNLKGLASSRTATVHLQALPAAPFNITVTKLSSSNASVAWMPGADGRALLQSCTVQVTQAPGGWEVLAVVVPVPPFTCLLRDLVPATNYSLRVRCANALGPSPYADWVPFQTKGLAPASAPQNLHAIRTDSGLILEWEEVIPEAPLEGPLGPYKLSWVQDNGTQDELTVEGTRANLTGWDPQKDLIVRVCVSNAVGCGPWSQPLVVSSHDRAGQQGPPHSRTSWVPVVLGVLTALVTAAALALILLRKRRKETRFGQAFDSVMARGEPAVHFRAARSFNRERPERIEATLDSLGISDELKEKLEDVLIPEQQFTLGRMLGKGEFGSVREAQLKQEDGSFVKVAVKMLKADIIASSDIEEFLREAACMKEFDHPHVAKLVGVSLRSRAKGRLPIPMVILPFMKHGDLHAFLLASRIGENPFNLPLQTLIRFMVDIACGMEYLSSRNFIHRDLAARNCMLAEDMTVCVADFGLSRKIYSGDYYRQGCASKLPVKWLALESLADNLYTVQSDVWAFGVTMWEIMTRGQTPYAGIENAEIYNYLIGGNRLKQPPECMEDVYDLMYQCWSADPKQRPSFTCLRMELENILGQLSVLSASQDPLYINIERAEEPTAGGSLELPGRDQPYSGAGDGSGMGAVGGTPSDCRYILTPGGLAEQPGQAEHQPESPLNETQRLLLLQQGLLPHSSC
Description: as §1

CDK2E = CDK2E (Homo sapiens, UniProt P24941); test: ADP Glo Kinase assay; format: biochemical; settings: 1 µM compound; read-out: % Residual enzymatic activity at 1 µM CDK2E
Description: (§2) Inhibition of CDKs and FLT3 were determined using ADP Glo Kinase assays, as previously described in International Patent Publication No WO 2017/020065.

CDK4D1 = CDK4D1 (Homo sapiens, UniProt P11802); test: ADP Glo Kinase assay; format: biochemical; settings: 1 µM compound; read-out: % Residual enzymatic activity at 1 µM CDK4D1
Chain of CDK4D1 (P11802 whole entry): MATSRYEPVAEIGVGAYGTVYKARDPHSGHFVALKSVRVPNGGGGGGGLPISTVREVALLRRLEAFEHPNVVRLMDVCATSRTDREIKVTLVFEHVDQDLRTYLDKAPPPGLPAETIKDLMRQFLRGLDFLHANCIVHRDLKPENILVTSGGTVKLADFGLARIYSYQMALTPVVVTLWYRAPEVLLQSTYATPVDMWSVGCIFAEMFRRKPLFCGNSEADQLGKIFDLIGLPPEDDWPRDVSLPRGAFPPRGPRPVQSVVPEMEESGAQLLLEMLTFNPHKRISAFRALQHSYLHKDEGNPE
Chain of CDK4D1 (P24385 whole entry partner): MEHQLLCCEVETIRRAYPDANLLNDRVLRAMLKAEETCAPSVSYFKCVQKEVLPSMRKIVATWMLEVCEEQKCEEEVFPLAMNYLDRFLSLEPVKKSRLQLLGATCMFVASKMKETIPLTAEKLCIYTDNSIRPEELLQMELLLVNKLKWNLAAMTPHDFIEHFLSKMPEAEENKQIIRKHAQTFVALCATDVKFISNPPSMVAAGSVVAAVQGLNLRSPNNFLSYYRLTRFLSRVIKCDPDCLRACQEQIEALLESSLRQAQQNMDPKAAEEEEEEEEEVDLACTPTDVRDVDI
Description: as §2

FLT3-ITD = test: ADP Glo Kinase assay; format: biochemical; settings: 1 µM compound
Description: as §2

MV4-11 = test: Proliferation assay (MTT, leukaemia cancer cell line); format: cell-based; settings: Homo sapiens; 1 µM compound, MV4-11 cells
From the text: Compounds from Example 1 were subjected to standard resazurin and MTT assays on solid tumour and leukaemia cancer cell lines, respectively, as previously reported (Wang S et al., J Med Chem 47:1662-1675, 2004 and Diab S et al., CheMedChem 9:962-972, 2014).

| SMILES | remaining activity at 1 µM (AXL) [%] | remaining activity at 1 µM (MET) [%] | remaining activity at 1 µM (Mer) [%] | remaining activity at 1 µM (TYRO3) [%] | remaining activity at 1 µM (CDK2E) [%] | remaining activity at 1 µM (CDK4D1) [%] | % Residual enzymatic activity at 1 µM FLT3-ITD (FLT3-ITD) [%] | activity at 1 µM (MV4-11) [%] |
| --- | --- | --- | --- | --- | --- | --- | --- | --- |
| CCOc1ccn(-c2ccc(F)cc2)c(=O)c1C(=O)Nc1ccc(Oc2ncnc(N)c2Cl)c(F)c1 [Cmpd 2, N-(4-((6-amino-5-chloropyrimidin-4-yl)oxy)-3-fluorophenyl)-4-ethoxy-1-(4-fluorophenyl)-2-oxo-1,2-dihydropyridine-3-carboxamide] | 2 | 2 | 1 | 0 | 94 | 38 | 52 | 15 |
| Nc1ncnc(Oc2ccc(NC(=O)c3cccn(-c4ccc(F)cc4)c3=O)cc2Cl)c1Cl [Cmpd 23, N-(4-((6-amino-5-chloropyrimidin-4-yl)oxy)-3-chlorophenyl)-1-(4-fluorophenyl)-2-oxo-1,2-dihydropyridine-3-carboxamide] | 67 | 98 | 95 | 63 |  |  | 51 | 1 |

Source: US20230339889A1, “DERIVATIVES OF 2-OXO-N-(4-(PYRIMIDIN-4-YLOXY/THIO)PHENYL)-1,2-DIHYDROPYRIDINE-3-CARBOXAMIDE FOR USE AS PROTEIN KINASE INHIBITORS FOR THERAPY” (AUCENTRA THERAPEUTICS PTY LTD, priority 2020, published 2023)
